{
  "source": "ChEMBL document CHEMBL1201862",
  "about": "“PubChem BioAssay data set” (2004)",
  "key": {"[1]": {"target": "Albumin (Bos taurus, UniProt P02769)", "assay": "Counterscreen for inhibitors of T-cell receptor (TCR)-CD3 interaction: Fluorescence-based biochemical high throughput dose response assay to identify inhibitors of T-cell receptor (TCR)-CD3 interaction using a TAMRA-labeled BSA probe.", "assay_type": "functional"}, "[2]": {"target": "Serine/threonine-protein kinase Chk1 (Homo sapiens, UniProt O14757)", "assay_type": "functional"}, "[3]": {"target": "LIM domain kinase 1 (Homo sapiens, UniProt P53667)", "sequence (P53667 whole entry, the tested form may be a part)": "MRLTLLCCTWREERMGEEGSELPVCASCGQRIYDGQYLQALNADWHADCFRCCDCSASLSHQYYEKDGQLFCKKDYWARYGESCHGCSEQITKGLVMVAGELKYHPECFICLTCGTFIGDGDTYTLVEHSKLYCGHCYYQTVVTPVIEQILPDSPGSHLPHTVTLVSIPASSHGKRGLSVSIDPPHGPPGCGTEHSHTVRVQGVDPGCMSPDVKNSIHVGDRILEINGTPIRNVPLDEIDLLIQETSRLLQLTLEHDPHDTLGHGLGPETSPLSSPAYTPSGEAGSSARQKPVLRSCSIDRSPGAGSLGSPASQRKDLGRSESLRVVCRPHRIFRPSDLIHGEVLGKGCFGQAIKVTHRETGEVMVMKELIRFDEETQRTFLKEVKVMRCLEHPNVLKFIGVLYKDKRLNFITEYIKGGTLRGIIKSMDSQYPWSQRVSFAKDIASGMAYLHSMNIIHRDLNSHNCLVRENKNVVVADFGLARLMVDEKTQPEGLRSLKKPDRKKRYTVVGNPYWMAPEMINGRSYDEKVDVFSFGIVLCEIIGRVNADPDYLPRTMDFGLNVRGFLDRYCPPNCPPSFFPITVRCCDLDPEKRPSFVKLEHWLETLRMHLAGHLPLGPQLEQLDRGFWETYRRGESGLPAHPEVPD", "assay": "Navigating the Kinome. Panel member name: LIMK1", "assay_type": "functional"}, "[4]": {"target": "Dual specificity tyrosine-phosphorylation-regulated kinase 1A (Homo sapiens, UniProt Q13627)", "assay_type": "functional"}, "[5]": {"target": "Activated CDC42 kinase 1 (Homo sapiens, UniProt Q07912)", "assay": "Navigating the Kinome. Panel member name: ACK1", "assay_type": "functional"}, "[6]": {"target": "Vascular endothelial growth factor receptor 1 (Homo sapiens, UniProt P17948)", "assay_type": "functional"}, "[7]": {"target": "Aurora kinase A (Homo sapiens, UniProt O14965)", "sequence (O14965 whole entry)": "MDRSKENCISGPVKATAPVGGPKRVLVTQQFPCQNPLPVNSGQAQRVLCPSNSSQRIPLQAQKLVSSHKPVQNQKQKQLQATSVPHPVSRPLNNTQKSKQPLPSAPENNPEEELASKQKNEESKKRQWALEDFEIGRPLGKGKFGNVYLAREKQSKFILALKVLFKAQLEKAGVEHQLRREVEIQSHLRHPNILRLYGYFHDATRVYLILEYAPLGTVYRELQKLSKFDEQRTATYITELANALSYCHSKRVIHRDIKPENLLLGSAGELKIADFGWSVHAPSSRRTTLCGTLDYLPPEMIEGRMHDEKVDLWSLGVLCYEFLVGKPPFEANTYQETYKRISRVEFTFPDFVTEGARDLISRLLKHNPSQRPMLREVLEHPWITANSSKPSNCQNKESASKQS", "assay_type": "functional"}, "[8]": {"target": "Leukocyte tyrosine kinase receptor (Homo sapiens, UniProt P29376)", "assay": "Navigating the Kinome. Panel member name: LTK", "assay_type": "functional"}, "[9]": {"target": "Insulin-like growth factor 1 receptor (Homo sapiens, UniProt P08069)", "assay": "Navigating the Kinome. Panel member name: IGF1R", "assay_type": "functional"}, "[10]": {"target": "cAMP-dependent protein kinase catalytic subunit PRKX (Homo sapiens, UniProt P51817)", "sequence (P51817 whole entry)": "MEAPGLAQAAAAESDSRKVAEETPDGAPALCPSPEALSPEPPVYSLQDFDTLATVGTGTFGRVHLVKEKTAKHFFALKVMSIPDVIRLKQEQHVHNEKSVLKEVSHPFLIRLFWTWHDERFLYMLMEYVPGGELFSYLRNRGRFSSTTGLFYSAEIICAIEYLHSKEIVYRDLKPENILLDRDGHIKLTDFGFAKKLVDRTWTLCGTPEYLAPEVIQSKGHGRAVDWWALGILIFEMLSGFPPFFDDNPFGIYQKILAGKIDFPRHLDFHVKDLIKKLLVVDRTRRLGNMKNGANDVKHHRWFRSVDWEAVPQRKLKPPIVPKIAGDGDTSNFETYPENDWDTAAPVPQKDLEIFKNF", "assay_type": "functional"}, "[11]": {"target": "Dual specificity tyrosine-phosphorylation-regulated kinase 1B (Homo sapiens, UniProt Q9Y463)", "assay": "Navigating the Kinome. Panel member name: DYRK1B", "assay_type": "functional"}, "[12]": {"target": "Cyclin-dependent kinase 7 (Homo sapiens, UniProt P50613)", "sequence (P50613 whole entry)": "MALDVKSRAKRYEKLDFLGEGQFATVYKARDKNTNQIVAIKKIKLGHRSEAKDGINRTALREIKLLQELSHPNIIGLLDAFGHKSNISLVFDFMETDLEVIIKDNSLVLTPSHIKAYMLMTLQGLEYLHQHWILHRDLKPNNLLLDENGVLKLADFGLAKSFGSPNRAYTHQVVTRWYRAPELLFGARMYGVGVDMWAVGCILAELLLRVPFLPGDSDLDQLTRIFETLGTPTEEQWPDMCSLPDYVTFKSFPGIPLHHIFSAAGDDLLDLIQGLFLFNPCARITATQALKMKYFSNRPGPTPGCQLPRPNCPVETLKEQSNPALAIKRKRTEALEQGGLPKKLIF", "assay_type": "functional"}, "[13]": {"target": "T1, Replicative DNA helicase DnaB (Mycobacterium tuberculosis, UniProt P9WMR3)", "T1 sequence (P9WMR3 whole entry)": "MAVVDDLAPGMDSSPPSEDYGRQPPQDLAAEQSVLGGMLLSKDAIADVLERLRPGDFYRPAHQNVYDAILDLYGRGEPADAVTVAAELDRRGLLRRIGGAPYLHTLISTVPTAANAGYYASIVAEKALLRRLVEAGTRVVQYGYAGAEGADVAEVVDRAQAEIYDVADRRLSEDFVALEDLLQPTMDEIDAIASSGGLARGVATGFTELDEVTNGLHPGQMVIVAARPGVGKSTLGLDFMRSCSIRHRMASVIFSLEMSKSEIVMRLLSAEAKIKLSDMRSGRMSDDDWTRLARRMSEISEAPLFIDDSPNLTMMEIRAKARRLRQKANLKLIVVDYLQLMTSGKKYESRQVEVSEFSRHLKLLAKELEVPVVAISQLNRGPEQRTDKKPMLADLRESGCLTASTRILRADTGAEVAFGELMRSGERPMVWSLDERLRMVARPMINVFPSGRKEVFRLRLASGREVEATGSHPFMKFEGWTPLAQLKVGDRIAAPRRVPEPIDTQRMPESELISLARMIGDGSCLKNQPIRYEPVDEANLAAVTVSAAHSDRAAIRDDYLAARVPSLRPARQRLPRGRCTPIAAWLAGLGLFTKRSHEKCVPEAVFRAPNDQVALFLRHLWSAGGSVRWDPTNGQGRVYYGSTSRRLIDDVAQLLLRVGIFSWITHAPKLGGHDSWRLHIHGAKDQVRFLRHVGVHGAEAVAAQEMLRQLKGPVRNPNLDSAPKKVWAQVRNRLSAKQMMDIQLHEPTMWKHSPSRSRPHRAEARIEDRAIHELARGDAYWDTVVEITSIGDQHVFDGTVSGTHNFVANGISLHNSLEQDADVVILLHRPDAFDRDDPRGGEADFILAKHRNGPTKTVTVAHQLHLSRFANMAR", "assay": "DnaB intein splicing inhibitors, dose response, biochemical, cell-free fluorescence (AID 449749)", "assay_type": "functional"}, "[14]": {"target": "T2, Hexokinase HKDC1 (Homo sapiens, UniProt Q2TB90)", "T2 sequence (Q2TB90 whole entry)": "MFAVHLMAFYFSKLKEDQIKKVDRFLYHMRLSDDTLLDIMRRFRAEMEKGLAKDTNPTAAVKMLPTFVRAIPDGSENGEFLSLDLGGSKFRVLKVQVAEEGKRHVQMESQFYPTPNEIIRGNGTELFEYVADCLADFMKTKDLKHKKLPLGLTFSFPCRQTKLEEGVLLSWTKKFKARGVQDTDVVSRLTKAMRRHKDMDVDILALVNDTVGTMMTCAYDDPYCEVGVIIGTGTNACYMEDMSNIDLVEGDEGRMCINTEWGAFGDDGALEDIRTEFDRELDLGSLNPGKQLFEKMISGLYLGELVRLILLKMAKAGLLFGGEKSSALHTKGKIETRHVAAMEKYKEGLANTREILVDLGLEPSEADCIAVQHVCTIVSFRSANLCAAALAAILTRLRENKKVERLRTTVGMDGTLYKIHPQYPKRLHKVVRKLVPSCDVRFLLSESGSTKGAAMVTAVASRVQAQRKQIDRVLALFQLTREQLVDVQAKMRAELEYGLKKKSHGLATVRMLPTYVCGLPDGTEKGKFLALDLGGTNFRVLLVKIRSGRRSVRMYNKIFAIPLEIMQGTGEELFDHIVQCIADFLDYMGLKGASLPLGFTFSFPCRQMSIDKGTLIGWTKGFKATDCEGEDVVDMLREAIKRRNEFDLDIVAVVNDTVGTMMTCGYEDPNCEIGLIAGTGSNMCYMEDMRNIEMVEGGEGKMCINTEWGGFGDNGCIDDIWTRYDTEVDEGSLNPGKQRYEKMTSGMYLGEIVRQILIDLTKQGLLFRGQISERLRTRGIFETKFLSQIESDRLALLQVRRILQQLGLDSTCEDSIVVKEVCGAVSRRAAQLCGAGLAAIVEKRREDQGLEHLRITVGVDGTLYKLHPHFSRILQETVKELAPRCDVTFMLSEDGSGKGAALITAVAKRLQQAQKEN", "assay": "HKDC1 hexokinase inhibitors, dose response, biochemical, W721R variant (AID 504729)", "assay_type": "functional"}, "[15]": {"target": "T3, Voltage-gated N-type calcium channel alpha-1B subunit/Amyloid beta A4 precursor protein-binding family A member 1 (Homo sapiens, UniProt Q00975+Q02410)", "T3 sequence (Q00975 whole entry)": "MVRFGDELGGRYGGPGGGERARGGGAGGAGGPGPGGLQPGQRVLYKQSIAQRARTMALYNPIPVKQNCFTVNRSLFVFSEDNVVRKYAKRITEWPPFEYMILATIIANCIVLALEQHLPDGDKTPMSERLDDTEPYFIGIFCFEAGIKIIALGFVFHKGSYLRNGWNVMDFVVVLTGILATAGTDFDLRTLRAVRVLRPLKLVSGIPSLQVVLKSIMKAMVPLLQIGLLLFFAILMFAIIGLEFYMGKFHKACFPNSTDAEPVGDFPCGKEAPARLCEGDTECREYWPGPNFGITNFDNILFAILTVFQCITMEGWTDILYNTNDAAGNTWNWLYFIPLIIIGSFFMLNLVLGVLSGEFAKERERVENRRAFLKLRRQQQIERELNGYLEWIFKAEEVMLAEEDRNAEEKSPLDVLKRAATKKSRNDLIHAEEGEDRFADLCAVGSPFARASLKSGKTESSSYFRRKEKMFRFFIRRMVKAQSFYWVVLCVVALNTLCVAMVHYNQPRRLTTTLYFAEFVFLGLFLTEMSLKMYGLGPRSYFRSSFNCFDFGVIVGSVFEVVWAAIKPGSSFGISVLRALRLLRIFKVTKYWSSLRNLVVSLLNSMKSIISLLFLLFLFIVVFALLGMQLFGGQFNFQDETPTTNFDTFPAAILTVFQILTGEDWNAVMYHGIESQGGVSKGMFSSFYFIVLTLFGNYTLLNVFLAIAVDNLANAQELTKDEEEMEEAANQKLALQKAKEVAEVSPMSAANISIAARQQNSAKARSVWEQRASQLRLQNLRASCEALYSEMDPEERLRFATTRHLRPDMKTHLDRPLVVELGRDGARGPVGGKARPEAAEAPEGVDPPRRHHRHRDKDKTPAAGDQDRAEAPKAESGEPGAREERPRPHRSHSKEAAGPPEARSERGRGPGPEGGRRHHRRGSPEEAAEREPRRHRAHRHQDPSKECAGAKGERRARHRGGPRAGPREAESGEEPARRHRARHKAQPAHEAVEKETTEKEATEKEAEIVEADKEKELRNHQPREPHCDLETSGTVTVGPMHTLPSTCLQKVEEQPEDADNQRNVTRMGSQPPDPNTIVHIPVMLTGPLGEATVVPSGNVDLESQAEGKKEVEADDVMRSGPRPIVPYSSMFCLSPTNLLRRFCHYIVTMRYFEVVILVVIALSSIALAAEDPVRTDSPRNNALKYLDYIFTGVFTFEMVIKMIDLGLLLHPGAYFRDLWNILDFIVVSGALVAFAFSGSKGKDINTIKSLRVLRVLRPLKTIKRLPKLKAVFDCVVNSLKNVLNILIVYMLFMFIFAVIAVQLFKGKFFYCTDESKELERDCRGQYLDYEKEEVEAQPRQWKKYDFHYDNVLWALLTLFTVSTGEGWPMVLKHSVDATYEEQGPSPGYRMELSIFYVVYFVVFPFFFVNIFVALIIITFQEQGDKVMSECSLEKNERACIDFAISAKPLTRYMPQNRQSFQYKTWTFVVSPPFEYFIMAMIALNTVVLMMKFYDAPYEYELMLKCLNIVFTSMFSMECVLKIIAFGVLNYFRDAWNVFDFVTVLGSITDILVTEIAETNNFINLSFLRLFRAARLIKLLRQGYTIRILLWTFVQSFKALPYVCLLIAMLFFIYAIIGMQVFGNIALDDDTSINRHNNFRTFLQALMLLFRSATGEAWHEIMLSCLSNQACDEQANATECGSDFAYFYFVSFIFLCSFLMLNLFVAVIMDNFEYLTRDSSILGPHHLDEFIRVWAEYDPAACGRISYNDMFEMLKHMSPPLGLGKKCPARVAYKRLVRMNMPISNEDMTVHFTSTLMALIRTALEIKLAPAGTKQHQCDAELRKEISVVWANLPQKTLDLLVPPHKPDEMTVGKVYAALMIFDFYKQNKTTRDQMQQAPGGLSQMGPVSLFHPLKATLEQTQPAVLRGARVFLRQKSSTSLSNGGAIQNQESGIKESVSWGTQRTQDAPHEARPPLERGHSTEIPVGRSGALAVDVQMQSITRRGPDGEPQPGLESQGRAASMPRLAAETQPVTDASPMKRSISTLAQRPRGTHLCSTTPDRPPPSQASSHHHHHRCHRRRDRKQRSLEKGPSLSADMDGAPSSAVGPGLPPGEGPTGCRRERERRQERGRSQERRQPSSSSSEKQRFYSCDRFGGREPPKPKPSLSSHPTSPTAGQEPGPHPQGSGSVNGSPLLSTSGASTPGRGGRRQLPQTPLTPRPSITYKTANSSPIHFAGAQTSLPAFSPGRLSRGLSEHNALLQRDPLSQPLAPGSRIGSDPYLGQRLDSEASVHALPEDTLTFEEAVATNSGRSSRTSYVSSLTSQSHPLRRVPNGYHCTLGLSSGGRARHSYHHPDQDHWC", "T3 sequence (Q02410 whole entry)": "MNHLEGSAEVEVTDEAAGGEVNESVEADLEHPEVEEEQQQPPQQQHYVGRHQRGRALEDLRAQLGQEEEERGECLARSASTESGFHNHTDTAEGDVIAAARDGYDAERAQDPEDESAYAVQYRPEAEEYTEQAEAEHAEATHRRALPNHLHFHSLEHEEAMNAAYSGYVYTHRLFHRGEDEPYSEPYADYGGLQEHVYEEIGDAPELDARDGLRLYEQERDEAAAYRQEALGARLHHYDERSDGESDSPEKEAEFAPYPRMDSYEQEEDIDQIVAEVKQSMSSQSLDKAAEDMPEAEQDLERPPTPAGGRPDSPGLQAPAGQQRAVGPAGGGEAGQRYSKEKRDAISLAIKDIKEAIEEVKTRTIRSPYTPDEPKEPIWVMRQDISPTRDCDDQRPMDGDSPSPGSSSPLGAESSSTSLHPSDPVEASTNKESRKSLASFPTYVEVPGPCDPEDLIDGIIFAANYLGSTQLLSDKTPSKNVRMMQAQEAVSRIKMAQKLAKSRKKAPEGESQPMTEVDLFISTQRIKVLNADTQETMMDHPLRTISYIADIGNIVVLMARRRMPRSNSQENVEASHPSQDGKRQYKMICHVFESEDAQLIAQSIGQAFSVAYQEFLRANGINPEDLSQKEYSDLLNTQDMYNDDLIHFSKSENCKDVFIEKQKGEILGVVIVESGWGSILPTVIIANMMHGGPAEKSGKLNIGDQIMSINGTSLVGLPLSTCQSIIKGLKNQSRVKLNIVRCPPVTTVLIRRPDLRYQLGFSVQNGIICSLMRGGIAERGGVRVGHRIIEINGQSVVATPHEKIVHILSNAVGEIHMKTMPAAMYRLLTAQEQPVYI", "assay_type": "protein assay"}, "[16]": {"target": "T3, Voltage-gated N-type calcium channel alpha-1B subunit/Amyloid beta A4 precursor protein-binding family A member 1", "assay_type": "protein assay", "remark": "listed apart in the source"}, "[17]": {"assay": "THP-1 cell cytotoxicity, dose response, cytotoxicity control for Vif-APOBEC3G degradation inhibitor project, THP-1 cells (AID 1117359)", "assay_type": "functional", "conditions": "Human immunodeficiency virus 1, THP-1"}},
  "note": "The source made the active and inactive calls.",
  "data": [
    {"smiles": "O=C1C=C(O)c2c(O)cc(O)c(O)c2C1=O", "values": [
      {"measurement": "IC50", "setting": "[1]", "result": "> 94.1 µM (inactive)"}
    ]},
    {"smiles": "Cc1ccc(-c2cc3nc(Br)cnc3[nH]2)cc1", "values": [
      {"measurement": "Ki", "setting": "[2]", "result": "> 3.16 µM (inactive)"},
      {"measurement": "Ki", "setting": "[3]", "result": "> 3.16 µM (inactive)"},
      {"measurement": "Ki", "setting": "[4]", "result": "> 2 µM (inactive)"},
      {"measurement": "Ki", "setting": "[5]", "result": "> 3.98 µM (inactive)"},
      {"measurement": "Ki", "setting": "[6]", "result": "> 3.98 µM (inactive)"},
      {"measurement": "Ki", "setting": "[7]", "result": "> 1.58 µM (inactive)"},
      {"measurement": "Ki", "setting": "[8]", "result": "> 2.51 µM (inactive)"},
      {"measurement": "Ki", "setting": "[9]", "result": "> 2.51 µM (inactive)"},
      {"measurement": "Ki", "setting": "[10]", "result": "> 3.16 µM (inactive)"},
      {"measurement": "Ki", "setting": "[11]", "result": "> 2.51 µM (inactive)"},
      {"measurement": "Ki", "setting": "[12]", "result": "158 nM (active)"}
    ]},
    {"smiles": "CC1(C)C=C2C(=NN(c3ccccc3)C(N)=C2C#N)CO1", "values": [
      {"measurement": "AC50", "setting": "[13]", "result": "> 380 µM (inconclusive)"}
    ]},
    {"smiles": "CC(=O)N(C1=C(Cl)C(=O)c2ccccc2C1=O)c1ccc(C(=O)O)cc1", "values": [
      {"measurement": "IC50", "setting": "[14]", "result": "6.23 µM (active)"},
      {"measurement": "IC50", "setting": "[15]", "result": "3.35 µM (active)"},
      {"measurement": "IC50", "setting": "[16]", "result": "225 nM (active)"},
      {"measurement": "CC50", "setting": "[17]", "result": "32.4 µM (active)"}
    ]}
  ]
}
